Test results reported in publication PMC6207370 (Xenobiotica; the fate of foreign compounds in biological …, 2017).
Read-outs that look alike come from different tables or passages of the source. Marks after values point to notes of the source that are not given here.

Columns and labels:
[1] = male, Hartley, guinea pig, pH 7.4
[2] = format: in vitro ADME
Allometric scaling = assay: Allometric scaling; design: species or system human; details: SSS from minipig
[3] = male, rhesus monkey, pH 7.4
[4] = male, CD-1, mouse, 1 μM, pH 7.4
[5] = male, Gottingen, minipig, 1 μM, pH 7.4
in vitro [6] = details: male, CD-1, mouse, s9, pH 7.4, CLint +NADPH
in vitro [7] = details: both, human
in vitro [8] = details: male, Hartley, guinea pig
[9] = male, cynomolgus monkey, pH 7.4
in vitro [10] = details: male, rhesus monkey
[11] = both, human, pH 7.4
in vitro [12] = details: male, Gottingen, minipig, s9, pH 7.4, CLint +NADPH
[13] = i.v., ref Dolan ME, Roy SK, Fasanmade AA, et al. (1998); cited from earlier work
in vitro [14] = details: male, Sprague-Dawley, rat, s9, pH 7.4, CLint +NADPH
[15] = male, Sprague-Dawley, rat, 1 μM, pH 7.4
in vitro [16] = details: male, cynomolgus monkey

In the case of `Nc1nc(OCc2ccccc2)c2[nH]cnc2n1` [O^6-benzylguanine], the “CLHEP (hepatic clearance)” value ([1]; 1 μM) is reported as 30.3 ± 1.11 mL/min/kg, the “E (estimated hepatic extraction ratio)” value ([1]; 1 μM) is reported as 0.50 and the “Fm,AO Method A (fraction metabolized by AO)” value ([1]; s9, 1 μM) is reported as 0.74. The “Fm,AO Method B (fraction metabolized by AO)” value ([1]; s9, 1 μM) was 0.83, the “Fm,AO, across species” value ([2]; all species except rat, mouse, and minipig) was ≥ 0.70 and the “E (estimated hepatic extraction ratio), across species” value ([2]; human, cynomolgus, and guinea pig hepatic S9) was “approximately 0.5”. The “E (estimated hepatic extraction ratio), across species” value ([2]; rat, mouse, minipig hepatic S9) was “approximately 0.1”, the “fold-error of human S9 CLint predicted by SSS” value (Allometric scaling) was “outside of 3-fold-error” and the “CLHEP (hepatic clearance)” value ([3]; 1 μM) was 15.0 ± 1.75 mL/min/kg. The “E (estimated hepatic extraction ratio)” value ([3]; 1 μM) was 0.34, the “Fm,AO Method A (fraction metabolized by AO)” value ([3]; s9, 1 μM) was 1 and the “Fm,AO Method B (fraction metabolized by AO)” value ([3]; s9, 1 μM) was 1^#. For the same compound, the “CLHEP (hepatic clearance)” value [4] was 16.6 ± 4.51 mL/min/kg, the “E (estimated hepatic extraction ratio)” value [4] was 0.18 and the “CLHEP (hepatic clearance)” value [5] was 3.79 ± 1.04 mL/min/kg. The “E (estimated hepatic extraction ratio)” value [5] was 0.14, the CLint scaled at 1 μM (in vitro [6]) was 15.5 ± 2.48 mL/min/kg and the CLint scaled at 1 μM (in vitro [7]; s9, pH 7.4, CLint +NADPH) was 17.8 ± 3.05 mL/min/kg. The CLint scaled at 1 μM (in vitro [7]; s9, pH 7.4, CLint +NADPH +Hyd) was 5.37 ± 1.16 mL/min/kg, the CLint scaled at 1 μM (in vitro [7]; s9, pH 7.4, CLint −NADPH) was 14.8 ± 1.98 mL/min/kg and the CLint scaled at 1 μM (in vitro [8]; s9, pH 7.4, CLint +NADPH) was 58.7 ± 4.65 mL/min/kg. For the same compound, the CLint scaled at 1 μM (in vitro [8]; s9, pH 7.4, CLint +NADPH +Hyd) was 15 ± 2.14 mL/min/kg, the CLint scaled at 1 μM (in vitro [8]; s9, pH 7.4, CLint −NADPH) was 48.7 ± 5.15 mL/min/kg and the “CLHEP (hepatic clearance)” value ([9]; 1 μM) was 21.4 ± 2.28 mL/min/kg. The “E (estimated hepatic extraction ratio)” value ([9]; 1 μM) was 0.49, the “Fm,AO Method A (fraction metabolized by AO)” value ([9]; s9, 1 μM) was 1 and the “Fm,AO Method B (fraction metabolized by AO)” value ([9]; s9, 1 μM) was 0.94. For the same compound, the CLint scaled at 1 μM (in vitro [10]; s9, pH 7.4, CLint +NADPH) was 19.5 ± 2.05 mL/min/kg, the CLint scaled at 1 μM (in vitro [10]; s9, pH 7.4, CLint −NADPH) was 21.3 ± 1.52 mL/min/kg and the “CLHEP (hepatic clearance)” value ([11]; 1 μM) was 9.62 ± 0.593 mL/min/kg. The “E (estimated hepatic extraction ratio)” value ([11]; 1 μM) was 0.46, the “Fm,AO Method A (fraction metabolized by AO)” value ([11]; s9, 1 μM) was 0.70 and the “Fm,AO Method B (fraction metabolized by AO)” value ([11]; s9, 1 μM) was 0.83. For the same compound, the CLint scaled at 1 μM (in vitro [12]) was 4.68 ± 2.2 mL/min/kg, the “Human Plasma Clearance” value [13] was 14.5^# mL/min/kg and the CLint scaled at 1 μM (in vitro [14]) was 6.59 ± 0.664 mL/min/kg. For the same compound, the “CLHEP (hepatic clearance)” value [15] was 7.40 ± 1.61 mL/min/kg, the “E (estimated hepatic extraction ratio)” value [15] was 0.11 and the CLint scaled at 1 μM (in vitro [16]; s9, pH 7.4, CLint +NADPH) was 35.6 ± 5.1 mL/min/kg. It also gave a CLint scaled at 1 μM (in vitro [16]; s9, pH 7.4, CLint −NADPH) of 33.5 ± 3.84 mL/min/kg.
